Measurements as given in ChEMBL document CHEMBL4177602, “Zaluzanin C (ZC) induces osteoblast differentiation through regulating of osteogenic genes expressions in early stage of differentiation” (Bioorg Med Chem Lett, 2017).
Activity calls are given as the source filed them. The rule behind the calls is not given here.

What was measured:
[1] = tested on: C3H 10T1/2; assay: Induction of osteoblast differentiation in mouse C3H10T1/2 cells assessed as increase in Dlx5 mRNA expression at 5 uM after 2 days by RT-PCR analysis; type: functional, cell-based
[2] = tested on: C3H 10T1/2; assay: Cytotoxicity against mouse C3H10T1/2 cells assessed as reduction in cell viability at 1 to 5 uM after 24 hrs by MTT assay; type: cell-based; settings: c3h 10t1/2, 24 h
[3] = tested on: MC3T3-E1; assay: Induction of osteoblast differentiation in mouse MC3T3-E1 cells assessed as increase in Dlx5 mRNA expression at 5 uM after 2 days by RT-PCR analysis; type: functional, cell-based
[4] = tested on: MC3T3-E1; assay: Induction of osteoblast differentiation in mouse MC3T3-E1 cells assessed as increase in Id1 mRNA expression at 5 uM after 2 days by RT-PCR analysis; type: functional, cell-based
[5] = tested on: MC3T3-E1; assay: Induction of mineralization in mouse MC3T3-E1 cells at 5 uM after 14 days in presence of ascorbic acid/beta-GP by alizarin red S staining based assay; type: functional, cell-based
[6] = tested on: MC3T3-E1; assay: Increase in Runx2 (unknown origin) promoter activity expressed in mouse MC3T3-E1 cells at 5 uM after 48 hrs by luciferase reporter gene assay; type: cell-based
[7] = tested on: MC3T3-E1; assay: Induction of mineralization in mouse MC3T3-E1 cells at 5 uM after 14 days by alizarin red S staining based assay; type: functional, cell-based
[8] = Increase in Runx2 (unknown origin) promoter activity expressed in mouse C3H10T1/2 cells at 5 uM after 48 hrs by luciferase reporter gene assay; type: cell-based
[9] = tested on: MC3T3-E1; assay: Cytotoxicity against mouse MC3T3-E1 cells assessed as reduction in cell viability at 1 to 5 uM after 24 hrs by MTT assay; type: cell-based; settings: mc3t3-e1, 24 h
[10] = tested on: MC3T3-E1; assay: Induction of osteoblast differentiation in mouse MC3T3-E1 cells assessed as increase in Runx2 mRNA expression at 5 uM after 2 days by RT-PCR analysis; type: functional, cell-based
[11] = tested on: C3H 10T1/2; assay: Induction of osteoblast differentiation in mouse C3H10T1/2 cells assessed as increase in Runx2 mRNA expression at 5 uM after 2 days by qPCR analysis; type: functional, cell-based
[12] = tested on: C3H 10T1/2; assay: Induction of osteoblast differentiation in mouse C3H10T1/2 cells assessed as increase in Runx2 protein level at 5 uM after 2 days by Western blot analysis; type: functional, cell-based
[13] = tested on: C3H 10T1/2; assay: Induction of osteoblast differentiation in mouse C3H10T1/2 cells assessed as increase in Runx2 mRNA expression at 5 uM after 2 days by RT-PCR analysis; type: functional, cell-based
[14] = tested on: MC3T3-E1; assay: Induction of osteoblast differentiation in mouse MC3T3-E1 cells assessed as increase in ALP activity at 5 uM after 4 days BCIP/NBT liquid substrate based assay; type: functional, cell-based
[15] = tested on: C3H 10T1/2; assay: Induction of osteoblast differentiation in mouse C3H10T1/2 cells assessed as increase in Id1 mRNA expression at 5 uM after 2 days by qPCR analysis; type: functional, cell-based
[16] = tested on: MC3T3-E1; assay: Induction of osteoblast differentiation in mouse MC3T3-E1 cells assessed as increase in Runx2 mRNA expression at 5 uM after 2 days by qPCR analysis; type: functional, cell-based
[17] = tested on: MC3T3-E1; assay: Induction of osteoblast differentiation in mouse MC3T3-E1 cells assessed as increase in Runx2 protein level at 5 uM after 2 days by Western blot analysis; type: functional, cell-based
[18] = tested on: MC3T3-E1; assay: Cytotoxicity against mouse MC3T3-E1 cells assessed as reduction in cell viability at >10 uM after 24 hrs by MTT assay; type: cell-based; settings: mc3t3-e1, 24 h
[19] = tested on: MC3T3-E1; assay: Induction of osteoblast differentiation in mouse MC3T3-E1 cells assessed as increase in Dlx5 mRNA expression at 5 uM after 2 days by qPCR analysis; type: functional, cell-based
[20] = tested on: MC3T3-E1; assay: Induction of osteoblast differentiation in mouse MC3T3-E1 cells assessed as increase in ALP activity at 5 uM after 4 days in presence of ascorbic acid/beta-GP BCIP/NBT liquid substrate based assay; type: functional, cell-based
[21] = tested on: MC3T3-E1; assay: Induction of osteoblast differentiation in mouse MC3T3-E1 cells assessed as increase in Id1 mRNA expression at 5 uM after 2 days by qPCR analysis; type: functional, cell-based
[22] = tested on: MC3T3-E1; assay: Induction of osteoblast differentiation in Runx2 knockdown mouse MC3T3-E1 cells assessed as increase in ALP activity at 5 uM after 4 days BCIP/NBT liquid substrate based assay; type: functional, cell-based
[23] = tested on: C3H 10T1/2; assay: Induction of osteoblast differentiation in mouse C3H10T1/2 cells assessed as increase in Id1 mRNA expression at 5 uM after 2 days by RT-PCR analysis; type: functional, cell-based
[24] = tested on: C3H 10T1/2; assay: Induction of osteoblast differentiation in mouse C3H10T1/2 cells assessed as increase in Dlx5 mRNA expression at 5 uM after 2 days by qPCR analysis; type: functional, cell-based
[25] = tested on: C3H 10T1/2; assay: Cytotoxicity against mouse C3H10T1/2 cells assessed as reduction in cell viability at >10 uM after 24 hrs by MTT assay; type: cell-based; settings: c3h 10t1/2, 24 h

C=C1[C@@H]2[C@H]3OC(=O)C(=C)[C@@H]3CCC(=C)[C@@H]2C[C@@H]1O [ZALUZANIN C]
Activity [1]: Active
Activity [2]: Non-Toxic
Activity [3]: Active
Activity [4]: Active
Activity [5]: Active
Activity [6]: Active
Activity [7]: Active
Activity [8]: Active
Activity [9]: Non-Toxic
Activity [10]: Active
Activity [11]: Active
Activity [12]: Active
Activity [13]: Active
Activity [14]: Active
Activity [15]: Active
Activity [16]: Active
Activity [17]: Active
Activity [18]: Toxic
Activity [19]: Active
Activity [20]: Active
Activity [21]: Active
Activity [22]: inactive
Activity [23]: Active
Activity [24]: Active
Activity [25]: Toxic
